Assay type in all cases: cell-based
In assay [1] the target is T1, GCGR (Homo sapiens, UniProt P47871).
T1 construct: expressed in transfected cells; host or cells: HEK293 (HEK293-GCGR)
Briefly: In vitro cell activity, cAMP production in HEK293 cells expressing GCGR. Particulars: HEK293-GCGR cells, cAMP; read-out: GCGR (EC50). As for the experimental part:
(§1) After they were completely thawed within 1.5 minutes, the cells were added dropwise into a 15 mL centrifuge tube containing 8 mL of warm culture medium in a clean bench. The tubes were centrifuged at 900 rpm for 5 minutes, the supernatant was discarded, and the cells were resuspended in 1 mL of complete culture medium (by pipetting 15 times). 20 µL of the suspension was immediately taken and mixed with an equal volume of trypan blue. 20 µL was taken to count the number of live cells, and the cells were diluted to 4×10^5 cells/mL with complete culture medium. • 4) The 384-well plate was divided into GLP-1R cell, GCGR cell and GIPR cell areas. The cell suspension was added to the wells of the corresponding area at 5 µL per well using a 12-channel variable-channel adjustable dispenser. […] Then, the diluted cAMP-d2 working solution and anti-cAMP-crytate working solution were mixed evenly in a ratio of 1:1, and 10 µL was added to each well of the sample group. The wells were covered with white lids and placed at room temperature in the dark for 1 hour or at 4 °C overnight. • 6) The fluorescence values at 665 nm and 620 nm were detected in a multifunctional microplate reader. In GraphPad Prism 6, the signal ratio and sample concentration were nonlinearly fitted using a four-parameter equation to obtain the EC50 value.
(In general: Cyclic AMP is a second messenger, typically raised through Gs and lowered through Gi signalling.)

The target of assay [2] is T2, GIPR (Homo sapiens, UniProt P48546).
T2 construct: expressed in transfected cells; host or cells: HEK293 (HEK293-GIPR)
T2 sequence (P48546 22-466): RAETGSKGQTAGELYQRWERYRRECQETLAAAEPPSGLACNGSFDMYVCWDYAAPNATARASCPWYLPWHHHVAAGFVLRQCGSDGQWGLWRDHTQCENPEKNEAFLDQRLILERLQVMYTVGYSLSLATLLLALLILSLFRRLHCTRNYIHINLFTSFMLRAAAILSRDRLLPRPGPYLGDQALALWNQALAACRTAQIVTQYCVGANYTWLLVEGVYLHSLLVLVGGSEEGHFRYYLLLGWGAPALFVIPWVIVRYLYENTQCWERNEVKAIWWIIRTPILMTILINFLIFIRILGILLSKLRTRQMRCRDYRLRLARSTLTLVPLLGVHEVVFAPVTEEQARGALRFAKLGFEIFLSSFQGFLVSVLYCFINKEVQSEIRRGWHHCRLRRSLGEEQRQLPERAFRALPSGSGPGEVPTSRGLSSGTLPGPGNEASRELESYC
Briefly: In vitro cell activity, cAMP production in HEK293 cells expressing GIPR. Particulars: HEK293-GIPR cells, cAMP; read-out: GIPR (EC50). On the procedure:
as §1, with “The wells were covered with white lids and placed at room temperature in the dark for 1 hour or at 4 °C overnight. • 6) The fluorescence values at 665 nm and 620 nm were detected in a multifunctional microplate reader.” left out

The target of assay [3] is T3, GLP-1R (Homo sapiens, UniProt P43220).
T3 construct: expressed in transfected cells; host or cells: HEK293 (HEK293-GLP-1R)
T3 sequence (P43220 24-463, species assumed): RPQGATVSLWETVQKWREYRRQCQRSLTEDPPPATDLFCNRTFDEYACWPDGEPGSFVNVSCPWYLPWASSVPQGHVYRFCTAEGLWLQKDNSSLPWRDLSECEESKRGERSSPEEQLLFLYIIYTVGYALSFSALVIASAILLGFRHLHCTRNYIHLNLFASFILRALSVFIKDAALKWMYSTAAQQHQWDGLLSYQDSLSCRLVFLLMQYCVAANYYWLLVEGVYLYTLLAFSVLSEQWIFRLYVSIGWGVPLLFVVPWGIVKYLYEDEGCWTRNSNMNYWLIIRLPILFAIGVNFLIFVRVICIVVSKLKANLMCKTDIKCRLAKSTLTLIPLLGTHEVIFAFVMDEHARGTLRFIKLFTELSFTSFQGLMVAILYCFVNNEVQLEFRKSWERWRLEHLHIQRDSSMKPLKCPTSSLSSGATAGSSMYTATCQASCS
Briefly: In vitro cell activity, cAMP production in HEK293 cells expressing GLP-1R. The following applies: HEK293-GLP-1R cells, cAMP; read-out: GLP-1R (EC50). On the procedure: as §1

Starred links: 1 amine or outer side, 2 acyl side, 3 side chain; linkers in the order of their positions; H or OH if unused. Non-standard residues stand in square brackets, D forms with d. Residues, ends and D or L forms follow the SMILES beside them. Groups on a side chain read outwards from the residue. *: point of attachment. C20 diacid = O=C(O)CCCCCCCCCCCCCCCCCCC(=O)*; αMePhe(2-F) = C[C@](N)(Cc1ccccc1F)C(=O)O; γGlu = O=C(O)[C@H](CCC(=O)[*:2])N[*:1]; AEEA = NCCOCCOCC(=O)O; Aib = CC(C)(N)C(=O)O

One may read the EC50 as the concentration at which the effect is half-maximal.

T1 sequence (P47871 26-477, species assumed): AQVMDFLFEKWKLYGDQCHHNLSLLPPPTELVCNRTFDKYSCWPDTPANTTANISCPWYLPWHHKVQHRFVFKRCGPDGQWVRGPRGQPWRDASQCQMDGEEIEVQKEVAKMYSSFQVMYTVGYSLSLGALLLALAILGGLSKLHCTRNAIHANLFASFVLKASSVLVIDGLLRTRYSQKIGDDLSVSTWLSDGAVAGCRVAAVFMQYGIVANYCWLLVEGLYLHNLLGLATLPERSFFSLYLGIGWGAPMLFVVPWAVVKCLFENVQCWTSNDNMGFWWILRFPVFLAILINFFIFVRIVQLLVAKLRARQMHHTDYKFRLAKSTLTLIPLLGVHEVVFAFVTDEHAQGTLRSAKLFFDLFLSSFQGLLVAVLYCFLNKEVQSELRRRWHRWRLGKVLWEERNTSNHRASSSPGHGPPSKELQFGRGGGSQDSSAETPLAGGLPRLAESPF

Regarding `CC[C@H](C)[C@H](NC(=O)[C@H](CO)NC(=O)[C@H](Cc1ccc(O)cc1)NC(=O)[C@H](CC(=O)O)NC(=O)[C@H](CO)NC(=O)[C@@H](NC(=O)[C@](C)(Cc1ccccc1F)NC(=O)[C@@H](NC(=O)CNC(=O)[C@H](Cc1c[nH]cn1)NC(=O)C(C)(C)NC(=O)[C@@H](N)Cc1ccc(O)cc1)[C@@H](C)O)[C@@H](C)O)C(=O)N[C@@H](CC(C)C)C(=O)N[C@@H](CC(C)C)C(=O)N[C@@H](CC(=O)O)C(=O)N[C@@H](CCC(=O)O)C(=O)N[C@@H](CCCCNC(=O)COCCOCCNC(=O)CC[C@H](NC(=O)CCCCCCCCCCCCCCCCC(=O)O)C(=O)O)C(=O)N[C@@H](CCCNC(=N)N)C(=O)N[C@@H](CCC(N)=O)C(=O)NC(C)(C)C(=O)N[C@@H](CCC(=O)O)C(=O)N[C@@H](Cc1ccccc1)C(=O)N[C@H](C(=O)N[C@@H](CCC(=O)O)C(=O)N[C@@H](Cc1c[nH]c2ccccc12)C(=O)N[C@@H](CC(C)C)C(=O)N[C@@H](CC(C)C)C(=O)N[C@@H](C)C(=O)NCC(=O)NCC(=O)N1CCC[C@H]1C(=O)N[C@@H](CO)C(=O)N[C@@H](CO)C(=O)NCC(=O)N[C@@H](C)C(=O)N1CCC[C@H]1C(=O)N1CCC[C@H]1C(=O)N1CCC[C@H]1C(=O)N[C@@H](CO)C(N)=O)[C@@H](C)CC` [HEC-PT109], the EC50 was found to be 0.707 nM in assay [1], 0.052 nM in assay [2] and 0.14 nM in assay [3].
Regarding `CC[C@H](C)[C@H](NC(=O)[C@H](CC(C)C)NC(=O)[C@H](Cc1c[nH]c2ccccc12)NC(=O)[C@H](CCC(=O)O)NC(=O)[C@@H](NC(=O)[C@H](Cc1ccccc1)NC(=O)[C@H](CCC(=O)O)NC(=O)[C@H](CCCCNC(=O)COCCOCCNC(=O)COCCOCCNC(=O)CC[C@H](NC(=O)CCCCCCCCCCCCCCCCCCC(=O)O)C(=O)O)NC(=O)[C@H](C)NC(=O)[C@H](C)NC(=O)[C@H](CCCNC(=N)N)NC(=O)[C@H](CCC(=O)O)NC(=O)[C@H](CC(=O)O)NC(=O)[C@H](CC(C)C)NC(=O)[C@H](CC(C)C)NC(=O)[C@@H](NC(=O)[C@H](CO)NC(=O)[C@H](Cc1ccc(O)cc1)NC(=O)[C@H](CC(=O)O)NC(=O)[C@H](CO)NC(=O)[C@@H](NC(=O)[C@](C)(Cc1ccccc1F)NC(=O)[C@@H](NC(=O)CNC(=O)[C@H](CCC(N)=O)NC(=O)C(C)(C)NC(=O)[C@@H](N)Cc1ccc(O)cc1)[C@@H](C)O)[C@@H](C)O)[C@@H](C)CC)[C@@H](C)CC)C(=O)N[C@@H](C)C(=O)NCC(=O)NCC(=O)N1CCC[C@H]1C(=O)N[C@@H](CO)C(=O)N[C@@H](CO)C(=O)NCC(=O)N[C@@H](C)C(=O)N1CCC[C@H]1C(=O)N1CCC[C@H]1C(=O)N1CCC[C@H]1C(=O)N[C@@H](CO)C(=O)O` [HEC-PT71] (H-Y[Aib]QGT[αMePhe(2-F)]TSDYSILLDERAAK([AEEA-AEEA-γGlu-C20 diacid])EFIEWLIAGGPSSGAPPPS-OH), the EC50 was 5.39 nM in assay [1], 0.464 nM in assay [2] and 0.336 nM in assay [3].
Taken in the same sequence, the figures for `CC[C@H](C)[C@H](NC(=O)[C@H](Cc1ccccc1)NC(=O)[C@H](C)NC(=O)[C@H](CCCCN)NC(=O)[C@H](CCC(N)=O)NC(=O)[C@H](CCCNC(=N)N)NC(=O)[C@H](CCCCNC(=O)COCCOCCNC(=O)CC[C@H](NC(=O)CCCCCCCCCCCCCCCCC(=O)O)C(=O)O)NC(=O)[C@H](CCC(=O)O)NC(=O)[C@H](CC(=O)O)NC(=O)[C@H](CC(C)C)NC(=O)[C@H](CC(C)C)NC(=O)[C@@H](NC(=O)[C@H](CO)NC(=O)[C@H](Cc1ccc(O)cc1)NC(=O)[C@H](CC(=O)O)NC(=O)[C@H](CO)NC(=O)[C@@H](NC(=O)[C@](C)(Cc1ccccc1F)NC(=O)[C@@H](NC(=O)CNC(=O)[C@H](Cc1c[nH]cn1)NC(=O)C(C)(C)NC(=O)[C@@H](N)Cc1ccc(O)cc1)[C@@H](C)O)[C@@H](C)O)[C@@H](C)CC)C(=O)N[C@@H](CCC(=O)O)C(=O)N[C@@H](Cc1ccc(O)cc1)C(=O)N[C@@H](CC(C)C)C(=O)N[C@@H](CC(C)C)C(=O)N[C@@H](C)C(=O)NCC(=O)NCC(=O)N1CCC[C@H]1C(=O)N[C@@H](CO)C(=O)N[C@@H](CO)C(=O)NCC(=O)N[C@@H](C)C(=O)N1CCC[C@H]1C(=O)N1CCC[C@H]1C(=O)N1CCC[C@H]1C(=O)N[C@@H](CO)C(N)=O` [HEC-PT121] were 0.89 nM, 0.0813 nM and 0.275 nM.
Taken in the same sequence, the figures for `CC[C@H](C)[C@H](NC(=O)[C@H](Cc1ccccc1)NC(=O)[C@H](C)NC(=O)[C@H](CCCCNC(=O)COCCOCCNC(=O)CC[C@H](NC(=O)CCCCCCCCCCCCCCCCC(=O)O)C(=O)O)NC(=O)[C@H](CCC(N)=O)NC(=O)[C@H](CCCNC(=N)N)NC(=O)[C@@H](NC(=O)[C@H](CCCNC(=N)N)NC(=O)[C@H](CC(=O)O)NC(=O)[C@H](CC(C)C)NC(=O)[C@H](CC(C)C)NC(=O)[C@@H](NC(=O)[C@H](CO)NC(=O)[C@H](Cc1ccc(O)cc1)NC(=O)[C@H](CC(=O)O)NC(=O)[C@H](CO)NC(=O)[C@@H](NC(=O)[C@](C)(Cc1ccccc1F)NC(=O)[C@@H](NC(=O)CNC(=O)[C@H](CCC(N)=O)NC(=O)C(C)(C)NC(=O)[C@@H](N)Cc1ccc(O)cc1)[C@@H](C)O)[C@@H](C)O)[C@@H](C)CC)[C@@H](C)CC)C(=O)N[C@@H](CCC(=O)O)C(=O)N[C@@H](Cc1ccc(O)cc1)C(=O)N[C@@H](CC(C)C)C(=O)N[C@@H](CC(C)C)C(=O)N[C@@H](CCC(=O)O)C(=O)NCC(=O)NCC(=O)N1CCC[C@H]1C(=O)N[C@@H](CO)C(=O)N[C@@H](CO)C(=O)NCC(=O)N[C@@H](C)C(=O)N1CCC[C@H]1C(=O)N1CCC[C@H]1C(=O)N1CCC[C@H]1C(=O)N[C@@H](CO)C(=O)O` [HEC-PT126] were 0.0319 nM, 0.0589 nM and 0.861 nM.
Turning to `CC[C@H](C)[C@H](NC(=O)[C@H](CCC(=O)O)NC(=O)[C@H](CC(=O)O)NC(=O)[C@H](CC(C)C)NC(=O)[C@H](CC(C)C)NC(=O)[C@@H](NC(=O)[C@H](CO)NC(=O)[C@H](Cc1ccc(O)cc1)NC(=O)[C@H](CC(=O)O)NC(=O)[C@H](CO)NC(=O)[C@@H](NC(=O)[C@](C)(Cc1ccccc1F)NC(=O)[C@@H](NC(=O)CNC(=O)[C@H](CCC(N)=O)NC(=O)C(C)(C)NC(=O)[C@@H](N)Cc1ccc(O)cc1)[C@@H](C)O)[C@@H](C)O)[C@@H](C)CC)C(=O)N[C@@H](C)C(=O)N[C@@H](CCC(N)=O)C(=O)N[C@@H](CCCCNC(=O)COCCOCCNC(=O)COCCOCCNC(=O)CC[C@H](NC(=O)CCCCCCCCCCCCCCCCCCC(=O)O)C(=O)O)C(=O)N[C@@H](C)C(=O)N[C@@H](Cc1ccccc1)C(=O)N[C@H](C(=O)N[C@@H](CCC(=O)O)C(=O)N[C@@H](Cc1ccc(O)cc1)C(=O)N[C@@H](CC(C)C)C(=O)N[C@H](C(=O)N[C@@H](C)C(=O)NCC(=O)NCC(=O)N1CCC[C@H]1C(=O)N[C@@H](CO)C(=O)N[C@@H](CO)C(=O)NCC(=O)N[C@@H](C)C(=O)N1CCC[C@H]1C(=O)N1CCC[C@H]1C(=O)N1CCC[C@H]1C(=O)N[C@@H](CO)C(=O)O)[C@@H](C)CC)[C@@H](C)CC` [HEC-PT99], the EC50 in assay [1] is 12.3 nM; in assay [2] it was 0.176 nM; in assay [3] it was 0.278 nM.
